Measured values published in patent US11492366B2, “Platinum compounds for binding guanine quadruplexes” (QUEEN'S UNIVERSITY AT KINGSTON, priority 2017, dated 2022).

Assays:
[1] = tested on: F21RT; experiment: FRET melting assay, F21RT; type: binding; settings: RNA quadruplex; 0.2 μM binder, 0.1 μM oligonucleotide, K+ buffer (1 mM KCl/99 mM LiCl for RNA); dichloride salts
From the text: (§1) All samples tested are guanine quadruplexes except FdxT, which is in duplex form. Binding of G4s by the specified binders of Formula (1) was shown.
(§2) 96-Well plate FRET melting assays were adapted from literature protocols (A. De Rache, J.-L. Mergny, Biochimie (2015),115: 194-202) and conducted using a Strategene Mx3005P real-time PCR apparatus. G4 oligonucleotides labelled with 5′-FAM (6-carboxyfluorescein) and 3′-TAMRA (6-carboxytetramethylrhodamine) fluorophores were folded by rapid annealing in buffer (2 min. at 90° C. followed by cooling in ice). The FAM fluorescent tag was excited at 492 nm and its emission followed at 516 nm while the plates were incubated at 25° C. (5 min.) and then heated (1° C./min) to 95° C. Each condition was repeated in duplicate, and every experiment was repeated at least three times for reproducibility. Final oligonucleotide concentration ([…]) and buffer conditions (10 mM lithium cacodylate, pH 7.2 with either 10 mM potassium chloride/90 mM lithium chloride or 100 mM sodium chloride for DNA, or with 1 mM potassium chloride and 99 mM lithium chloride for RNA) were kept constant. T1/2 values were obtained as the temperature at which the normalized fluorescence emission is 0.5, with ΔT1/2=T1/2 (G4+ binder) — T1/2 (G4). […]

[2] = tested on: F21T; experiment: FRET melting assay, F21T; type: binding; settings: DNA quadruplex; 0.2 μM binder, 0.1 μM oligonucleotide, K+ buffer; dichloride salts
From the text: as §1, §2

[3] = tested on: F21CTAT; experiment: FRET melting assay, F21CTAT; type: binding; settings: DNA quadruplex; 0.2 μM binder, 0.1 μM oligonucleotide, K+ buffer; dichloride salts
From the text: as §1, §2

[4] = tested on: FBom17T; experiment: FRET melting assay, FBom17T; type: binding; settings: DNA quadruplex; 0.2 μM binder, 0.1 μM oligonucleotide, K+ buffer; dichloride salts
From the text: as §1, §2

[5] = tested on: FTBAT; experiment: FRET melting assay, FTBAT; type: binding; settings: DNA quadruplex; 0.2 μM binder, 0.1 μM oligonucleotide, K+ buffer; dichloride salts
From the text: as §1, §2

[6] = tested on: Fc-mycT; experiment: FRET melting assay, Fc-mycT; type: binding; settings: DNA quadruplex; 0.2 μM binder, 0.1 μM oligonucleotide, K+ buffer; dichloride salts
From the text: as §1, §2

[7] = tested on: F25cebT; experiment: FRET melting assay, F25cebT; type: binding; settings: DNA quadruplex; 0.2 μM binder, 0.1 μM oligonucleotide, K+ buffer; dichloride salts
From the text: as §1, §2

[8] = tested on: FdxT; experiment: FRET melting assay, FdxT duplex; type: binding; settings: DNA duplex; 0.2 μM binder, 0.1 μM oligonucleotide, K+ buffer; dichloride salts
From the text: as §1, §2

[9] = tested on: 22AG; experiment: FID titration (thiazole orange displacement) and data fitting; type: binding, human; settings: K buffer, error 3σ × standard deviation
Protocol: Specifically, such titrations involve the addition of a binder to a thiazole orange (TO):22AG complex (0.25 or 0.5 μM DNA) in potassium buffer (10 mM lithium cacodylate buffer (pH 7.2) and 100 mM KCl). FIG. 4A provides an example of the blank-, baseline-, and volume-corrected fluorescence spectra obtained from the titration of Pt(2)2 with TO-22AG. […] Previous experiments indicate that the fluorophore binds to the quadruplex in a 1:1 TO:22AG stoichiometry, thus potentially leaving a second binding site unoccupied on the other terminal guanine tetrad of 22AG. […]
FID assays were adapted from literature protocols (Monchaud et al., Biochimie (2008) 90: 1207-23). […] In order to derive binding constants from FID data, fluorescence titrations monitoring the binding of TO to the quadruplex examined were first performed in triplicate. A TO-G4 binding constant was determined by data fitting using the HypSpec2014 software (see below). […]
Experiments were performed in a 1.5 mL cell at 25° C. […] Following a 3 minute equilibrium period after each addition, the fluorescence emission spectrum was recorded (λex=501 nm, λem=510-750 nm, bandwidth 5 nm, step size 1 nm). […]
A blank sample containing only buffer was measured in a 1.5 mL fluorescence cuvette to serve as reference. […]

[10] = tested on: guanine quadruplexes; experiment: FRET melting assays, overall statements; type: binding; settings: 0.2 μM binder
From the text: as §1, §2

[11] = tested on: 22AG; experiment: Circular dichroism titration, 22AG; type: binding, human; settings: for Binder-induced conformational change of 22AG from hybrid to antiparallel (CD): K+ buffer (100 mM KCl), 0-5 equivalents binder
Protocol: Referring to FIGS. 3A and 3B, representative CD spectra from titrations where binders are added to A) 22AG and B) c-myc in potassium buffer (10 mM lithium cacodylate buffer (pH 7.2) and 100 mM KCl) are provided. Specifically, these graphs show changes in Δ A upon addition of Pt(11)2 (0-5 equivalents). Such experiments were performed for all novel binders of Formula (1) described in Table 1 with the exception of Pt(6)2.
The latter phenomenon is of particular interest in the case of the polymorphic quadruplex 22AG, which can adopt parallel, hybrid, and/or antiparallel topologies. […] The interactions of all novel binders of Formula (1) except Pt(6)2 (see Table 1) with 22AG and c-myc have been confirmed through similar CD titrations. In FIG. 3A, spectral changes such as the appearance of a peak at […] are consistent with a conformational change from a hybrid to an antiparallel 22AG quadruplex (Randazzo et al, Top. Curr. Chem. (2013) 330: 67-86).
500 μL Aliquots of 22AG and c-myc were folded at 3 μM by rapid annealing (2 min. at 90° C. followed by cooling in ice) in 10 mM lithium cacodylate (pH 7.2) and 100 mM potassium chloride. G4 binders were prepared in the same buffer at 37.5 or 75 μM, such that 0.5 equiv. binder was equivalent to 10 or 20 μL additions. Spectra at 0, 0.5, 1.0, 1.5, 2.0, 3.0, and 5.0 equivalents of binder added to G4 were acquired after 15 minutes of equilibration. Each spectrum was collected using a Jasco J-815 spectrometer with the following experimental parameters: wavelength range: 200-500 nm, data pitch: 1 nm, D.I.T.: 0.5 s, scan speed: 100 nm/min, accumulations: 3. Acquired data was then blank-corrected and baseline-corrected. Curves were smoothed by taking the average of the ellipticity data from the preceding 4 wavelengths as well as the current wavelength.

Compound	Average Binder-Induced Stabilization of Melting Temperature (ΔT1/2), F21RT [1] [°C]	Average Binder-Induced Stabilization of Melting Temperature (ΔT1/2), F21T [2] [°C]	Average Binder-Induced Stabilization of Melting Temperature (ΔT1/2), F21CTAT [3] [°C]	Average Binder-Induced Stabilization of Melting Temperature (ΔT1/2), FBom17T [4] [°C]	Average Binder-Induced Stabilization of Melting Temperature (ΔT1/2), FTBAT [5] [°C]	Average Binder-Induced Stabilization of Melting Temperature (ΔT1/2), Fc-mycT [6] [°C]	Average Binder-Induced Stabilization of Melting Temperature (ΔT1/2), F25cebT [7] [°C]	Average Binder-Induced Stabilization of Melting Temperature (ΔT1/2), FdxT [8] [°C]	Average Log(β), 2:1 binder:G4 complex [9] [M^−2]	Stabilization / binding of guanine quadruplexes (in words) [10]	Binder-induced conformational change of 22AG from hybrid to antiparallel (CD) [11]	Preferentially bound topology of human telomeric 22AG ([11]; in potassium)
C[n+]1cc(NC(=O)c2ccc3ccc4ccc(C(=O)Nc5cc6ccccc6[n+](C)c5)nc4c3n2)cc2ccccc21 [Phen-DC3, reference compound]	13.3	16.4	11.7	3.2	6.4	11.3	>8.5	0.6	16.0 ± 1.3			
C#Cc1ccc2[n+](c1)[Pt-2]1([n+]3cc(C#C)ccc3-c3n4ccccc4n[n+]31)[n+]1nc3ccccn3c1-2 [Pt(6)2]	4.5	0.9	1.9	0.7	1.8	0.2	0.9	0.4		binding was minimal		
CC(C)(C)OC(=O)Nc1ccc2n[n+]3c(n2c1)-c1cccc[n+]1[Pt-2]31[n+]2ccccc2-c2n3cc(NC(=O)OC(C)(C)C)ccc3n[n+]21 [Pt(17)2]											no conformational changes are observed	preferentially bind to a hybrid topology
CC(=O)NCC(=O)Nc1ccc2n[n+]3c(n2c1)-c1cccc[n+]1[Pt-2]31[n+]2ccccc2-c2n3cc(NC(=O)CNC(C)=O)ccc3n[n+]21 [Pt(18)2]											to a lesser extent	
CC(=O)NCC(=O)NCC(=O)Nc1ccc2n[n+]3c(n2c1)-c1cccc[n+]1[Pt-2]31[n+]2ccccc2-c2n3cc(NC(=O)CNC(=O)CNC(C)=O)ccc3n[n+]21 [Pt(19)2]											to a lesser extent	
